Columns and labels:
[1] = molecular target: T1, DCTD (Homo sapiens, UniProt P32321); assay: thin-layer chromatography of dCMP deamination; format: biochemical; details: allosteric activator; substrate dCMP; 37 C, 15 min; 50 mM Tris-HCl pH 7.5
T1 sequence (P32321 1-178): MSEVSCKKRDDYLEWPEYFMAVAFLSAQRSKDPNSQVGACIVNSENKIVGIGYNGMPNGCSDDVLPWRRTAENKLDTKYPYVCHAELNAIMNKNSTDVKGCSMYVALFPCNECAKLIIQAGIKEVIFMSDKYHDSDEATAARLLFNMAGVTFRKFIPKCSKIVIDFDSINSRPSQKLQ

[2] = substrate: Nc1ccn([C@H]2C[C@H](O)[C@@H](COP(=O)(O)OP(=O)(O)OP(=O)(O)O)O2)c(=O)n1; assay: purified protein; format: biochemical, Homo sapiens; details: 50 mM Tris-HCl pH 7.5, 200 ng enzyme, sigmoidal fit slightly better than Michaelis-Menten

Molecule	thin-layer chromatography of dCMP deamination [1]	Km [2] [µM]
Nc1ccn([C@H]2C[C@H](O)[C@@H](COP(=O)(O)OP(=O)(O)OP(=O)(O)O)O2)c(=O)n1 [dCTP]	DCTD converted dCMP to dUMP, with activity enhanced by the allosteric activator dCTP	–
CDADC1 (Homo sapiens) (protein, two deaminase domains CDD1 and CDD2) MKEAGQMQNLESARAGRSVSTQTGSMTGQIPRLSKVNLFTLLSLWMELFPAEAQRQKSQKNEEGKHGPLGDNEERTRVSTDKRQVKRTGLVVVKNMKIVGLHCSSEDLHAGQIALIKHGSRLKNCDLYFSRKPCSACLKMIVNAGVNRISYWPADPEISLLTEASSSEDAKLDAKAVERLKSNSRAHVCVLLQPLVCYMVQFVEETSYKCDFIQKITKTLPDANTDFYYECKQERIKEYEMLFLVSNEEMHKQILMTIGLENLCENPYFSNLRQNMKDLILLLATVASSVPNFKHFGFYRSNPEQINEIHNQSLPQEIARHCMVQARLLAYRTEDHKTGVGAVIWAEGKSRSCDGTGAMYFVGCGYNAFPVGSEYADFPHMDDKQKDREIRKFRYIIHAEQNALTFRCQEIKPEERSMIFVTKCPCDECVPLIKGAGIKQIYAGDVDVGKKKADISYMRFGELEGVSKFTWQLNPSGAYGLEQNEPERRENGVLRPVPQKEEQHQDKKLRLGIH	–	288.5 ± 30.6
